# Laboratory results published in patent publication US7071165B2, “LHRH antagonist peptides” (Indiana University Research and Technology Corporation, priority 1995, dated 2006).
# Structures can show the parent of a compound that is named as a salt. Starred links: 1 amine or outer side, 2 acyl side, 3 side chain; linkers in the order of their positions; H or OH if unused. Non-standard residues stand in square brackets, D forms with d. Residues, ends and D or L forms follow the SMILES beside them. *: point of attachment. X2 = O=C([C@@H](Cc1ccc[n+](Cc2ccccc2)c1)N[*:1])[*:2]; dPhe(4-Cl) = N[C@H](Cc1ccc(Cl)cc1)C(=O)O; X3 = C[S+](C)CC[C@@H](N[*:1])C(=O)[*:2]; X4 = C[S+](C)CC[C@H](N[*:1])C(=O)[*:2]; d2Nal = N[C@H](Cc1ccc2ccccc2c1)C(=O)O; Lys(iPr) = CC(C)NCCCC[C@H](N)C(=O)O; NMeY = CN[C@@H](Cc1ccc(O)cc1)C(=O)O; d3Pal = N[C@H](Cc1cccnc1)C(=O)O; NHCH2CH2SO3H = O=S(=O)(O)CCN*; X1 = O=C(c1ccc[n+]([O-])c1)*; Sar = CNCC(=O)O
# Experiments:
# [1] = test system: ovulation in female rats; experiment: Anti-ovulatory activity (AOA) in vivo assay in rats; parameters: species or system rat; conditions: for AO activity (AOA), in words: rat, in vivo
# Procedure: As used herein, “LHRH antagonist peptide” is intended to include peptides and peptide analogs which inhibit LHRH activity (i.e., has “LHRH antagonist activity”) in vivo or in vitro. Candidate LHRH antagonist peptides can be assayed, for example, in the animal model described in Corbin and Beattie, Endocrine Res. Commun. 2:1 (1975) (and see infra). In this assay, the LHRH antagonistic activity of a candidate compound is assayed by measuring the antiovulatory activity (AOA) of the compound in rats.
# Anti-ovulatory activity (AOA) was measured by an in vivo assay in rats, as described in Corbin and Beattie, Endocrine Res. Commun. 2:1 (1975). In brief, female rats are injected with a candidate LHRH antagonist on the day of proestrus; in general, the candidate LHRH antagonist was dissolved in 0.1% DMSO. The ability of the candidate peptide to inhibit ovulation is measured by determining the number of rats which ovulate. A candidate peptide is considered to have LHRH antagonist qualities if it inhibits ovulation in at least 50% of the treated rats at a dose of 5 μg per rat. Preferred LHRH antagonists inhibit ovulation in at least 50% of rats at a dose of 2 μg per rat, more preferably at a dose of […], and still more preferably at a dose of 0.5 μg per rat.
# [2] = test system: rat mast cells; experiment: Histamine release assay, rat mast cells
# Procedure: The term “histamine-releasing activity”, as used herein, refers to the tendency of a compound to release histamine when administered to a subject. The histamine-releasing activity of a compound can be measured with an in vitro assay (described in more detail, infra). […] Histamine-releasing activity was assayed by the method described in U.S. Pat. No. 4,851,385 to Roeske. Briefly, a suspension of rat mast cells was added to increasing concentrations of an LHRH antagonist peptide and incubated for 15 minutes at 37° C. The buffer contained 25 mM PIPES, pH 7.4, NaCl (119 mM), KCl (5 mM), NaOH (40 mM) glucose (5.6 mM), CaCl2 (1 mM) and 0.1% bovine serum albumin.
# [3] = rat mast cells, 15 minutes at 37° C.
compound,measurement,setting,value
"Ac-D-Nal^1, 4-Cl-D-Phe^2, D-Pal^3, His^5D-Pal(iPr)^6, Lys(iPr)^8, D-Ala^10-LHRH.2TFA [Compound 3982]",AO activity (AOA): rats which ovulate / rats treated,[1]; dose 1 μg per rat,8/8@1.00
same,Histamine release ED50,[2]; footnote c: run with Nal arg reference 0.28,53 µg/mL
same,Histamine release ED50,[2]; footnote d: run with Nal arg reference 0.11,33 µg/mL
"CC(=O)N[C@H](Cc1ccc2ccccc2c1)C(=O)N[C@H](Cc1ccc(Cl)cc1)C(=O)N[C@H](Cc1cccnc1)C(=O)N[C@@H](CO)C(=O)N[C@@H](Cc1ccc(O)cc1)C(=O)N[C@H](CC(N)=O)C(=O)N[C@@H](CC(C)C)C(=O)N[C@@H](CCCCNC(C)C)C(=O)N1CCC[C@H]1C(=O)N[C@H](C)C(N)=O [Compound 3342, Ac-D-Nal^1,4-Cl-D-Phe^2, D-Pal^3, D-Asn^6-Lys(iPr)^8, D-Ala^10-LHRH.TFA] (Ac-[d2Nal][dPhe(4-Cl)][d3Pal]SY[dN]L[Lys(iPr)]P[dA]-NH2)","Histamine-releasing activity, in words",[2],very low histamine release
"Ac-D-Nal^1, 4-Cl-D-Phe^2, D-Pal^3, D-Cit^6-Lys(iPr)^8, Pip^9-LHRH.TFA [Compound 3363]",AO activity (AOA): rats which ovulate / rats treated,[1]; dose 1 μg per rat,6/8@1 μg
same,Histamine release ED50,[2]; [3],25 µg/mL
"CC(=O)N[C@H](Cc1ccc2ccccc2c1)C(=O)N[C@H](Cc1ccc(Cl)cc1)C(=O)N[C@H](Cc1cccnc1)C(=O)N[C@@H](CO)C(=O)N[C@@H](Cc1ccc(O)cc1)C(=O)N[C@@H](C(=O)N[C@@H](CC(C)C)C(=O)N[C@@H](CCCCNC(C)C)C(=O)N1CCC[C@H]1C(=O)N[C@H](C)C(N)=O)[C@H](C)O [Compound 3343, Ac-D-Nal^1,4-Cl-D-Phe^2, D-Pal^3, D-Thr^6-Lys(iPr)^8, D-Ala^10-LHRH.TFA] (Ac-[d2Nal][dPhe(4-Cl)][d3Pal]SY[dT]L[Lys(iPr)]P[dA]-NH2)","Histamine-releasing activity, in words",[2],very low histamine release
"Ac-D-Nal^1, 4-Cl-D-Phe^2, D-Pal^3, D-Phe(4-NO2)^6-Lys(iPr)^8, D-Ala^10-LHRH.TFA [Compound 3364]",AO activity (AOA): rats which ovulate / rats treated,[1]; dose 1 μg per rat,6/8@1 μg
same,Histamine release ED50,[2]; [3],14 µg/mL
"Ac-D-Nal^1, 4-Cl-D-Phe^2, D-Pal^3, D-Lys(iPrPic)^6, Lys(iPr)^8, D-Ala^10-LHRH.TFA [Compound 3438]",AO activity (AOA): rats which ovulate / rats treated,[1]; dose 1 μg per rat,2/8@1 μg
same,Histamine release ED50,[2]; [3],5.6 µg/mL
"Ac-D-Nal^1, 4-Cl-D-Phe^2, D-Pal^3, D-Cit^6-Lys(iPr)^8, ProNHEt^9-des-Gly^10-LHRH.TFA [Compound 3365]",Histamine release ED50,[2]; [3],24 µg/mL
"CC(=O)N[C@H](Cc1ccc2ccccc2c1)C(=O)N[C@H](Cc1ccc(Cl)cc1)C(=O)N[C@H](Cc1cccnc1)C(=O)N[C@@H](CO)C(=O)N[C@@H](Cc1ccc(O)cc1)C(=O)N[C@H](CCC(N)=O)C(=O)N[C@@H](CC(C)C)C(=O)N[C@@H](CCCCNC(C)C)C(=O)N1CCC[C@H]1C(=O)N[C@H](C)C(N)=O [Compound 3341, Ac-D-Nal^1,4-Cl-D-Phe^2, D-Pal^3, D-Gln^6-Lys(iPr)^8, D-Ala^10-LHRH.TFA] (Ac-[d2Nal][dPhe(4-Cl)][d3Pal]SY[dQ]L[Lys(iPr)]P[dA]-NH2)","Histamine-releasing activity, in words",[2],very low histamine release
"CC(=O)N[C@H](Cc1ccc2ccccc2c1)C(=O)N[C@H](Cc1ccc(Cl)cc1)C(=O)N[C@H](Cc1cccnc1)C(=O)N[C@@H](CO)C(=O)N(C)[C@@H](Cc1ccc(O)cc1)C(=O)N[C@H](CCCCNC(=O)c1ccc[n+]([O-])c1)C(=O)N[C@@H](CC(C)C)C(=O)N[C@@H](CCCCNC(C)C)C(=O)N1CCC[C@H]1C(=O)N[C@H](C)C(N)=O [Compound 3828, Ac-D-Nal^1,4-Cl-D-Phe^2, D-Pal^3, N-Me-Tyr^5, D-Lys(Onic)^8, Lys(iPr)^8, D-Ala^10-LHRH.TFA] (Ac-[d2Nal][dPhe(4-Cl)][d3Pal]S[NMeY][dK](X1)L[Lys(iPr)]P[dA]-NH2)","Histamine-releasing activity, in words",[2],low histamine releasing activity
"CC(=O)N(C)CC(=O)N[C@H](Cc1ccc(Cl)cc1)C(=O)N[C@H](Cc1ccc2ccccc2c1)C(=O)N[C@@H](CO)C(=O)N[C@@H](Cc1ccc(O)cc1)C(=O)N[C@H](Cc1ccc[n+](Cc2ccccc2)c1)C(=O)N[C@@H](CC(C)C)C(=O)N[C@@H](CCCCNC(C)C)C(=O)N1CCC[C@H]1C(=O)N[C@H](C)C(N)=O [Compound 3763, Ac-Sar^1,4-Cl-D-Phe^2, D-Nal^3, D-Pal(Bzl)^6, Lys(iPr)^8, D-Ala^10-LHRH.2TFA] (Ac-[Sar][dPhe(4-Cl)][d2Nal]SY[X2]L[Lys(iPr)]P[dA]-NH2)","Histamine-releasing activity, in words",[2],very little histamine-releasing activity
"Ac-D-Nal^1, 4-Cl-D-Phe^2, D-Pal^3, D-Cit^6-Lys(iPr)^8, Pip^9-D-Ala^10-LHRH.TFA [Compound 3344]",AO activity (AOA): rats which ovulate / rats treated,[1]; dose 1 μg per rat,9/10@1 μg
same,Histamine release ED50,[2]; [3],32 µg/mL
"Ac-D-(or L)-Ada-Ala^1, 4-Cl-D-Phe^2, D-Pal^3, D-Cit^6-Lys(iPr)^8, D-Ala^10-LHRH.TFA [Compound 3368]",AO activity (AOA): rats which ovulate / rats treated,[1]; dose 5 μg per rat,5/8@5 μg
same,Histamine release ED50,[2]; [3],34 µg/mL
"CC(=O)N[C@H](Cc1ccc2ccccc2c1)C(=O)N[C@H](Cc1ccc(Cl)cc1)C(=O)N[C@H](Cc1cccnc1)C(=O)N[C@@H](CO)C(=O)N[C@@H](Cc1ccc(O)cc1)C(=O)N[C@H](CCC(=O)NCCS(=O)(=O)O)C(=O)N[C@@H](CC(C)C)C(=O)N[C@@H](CCCCNC(C)C)C(=O)N1CCC[C@H]1C(=O)N[C@H](C)C(N)=O [Compound 3361, Ac-D-Nal^1,4-Cl-D-Phe^2, D-Pal^3, D-Glu(Taurine)^6-Lys(iPr)^8, D-Ala^10-LHRH.TFA] (Ac-[d2Nal][dPhe(4-Cl)][d3Pal]SY[dE](NHCH2CH2SO3H)L[Lys(iPr)]P[dA]-NH2)","Histamine-releasing activity, in words",[2],very low histamine release
"CC(=O)N[C@H](Cc1ccc2ccccc2c1)C(=O)N[C@H](Cc1ccc(Cl)cc1)C(=O)N[C@H](Cc1c[nH]c2ccccc12)C(=O)N[C@@H](CO)C(=O)N[C@@H](Cc1ccc(O)cc1)C(=O)N[C@H](CC[S+](C)C)C(=O)N[C@@H](CC(C)C)C(=O)N[C@@H](CC[S+](C)C)C(=O)N1CCC[C@H]1C(=O)N[C@H](C)C(N)=O [Compound 3925, Ac-D-Nal^1,4-Cl-D-Phe^2, D-Trp^3, D-Met(S^+Me)^6, Met(S^+Me)^8, D-Ala^10-LHRH.2TFA] (Ac-[d2Nal][dPhe(4-Cl)][dW]SY[X3]L[X4]P[dA]-NH2)","Histamine-releasing activity, in words",[2],low histamine release
"Ac-D-Nal^1, 4-Cl-D-Phe^2, D-Pal^3, D-Cit^6-Lys(iPr)^8-LHRH.TFA [Compound 3362]",AO activity (AOA): rats which ovulate / rats treated,[1]; dose 1 μg per rat,4/8@1 μg
same,Histamine release ED50,[2]; [3],22 µg/mL
"Ac-D-Nal^1, 4-Cl-D-Phe^2, D-Trp^3, D-Lys(COCH2Br)^6, D-Ala^10-LHRH.TFA [Compound 3948]","AO activity (AOA), in words",[1],low activity
"Ac-D-Nal^1, 4-Cl-D-Phe^2, D-Pal^3, D-Lys(Hippic)^6, Lys(iPr)^8, D-Ala^10-LHRH.TFA [Compound 3758]",AO activity (AOA): rats which ovulate / rats treated,[1]; dose 1 μg per rat,5/8@1.0
"Ac-D-Nal^1, 4-Cl-D-Phe^2, D-Pal^3, D-Arg^6, Dap(COCH2S^+Me2)^8, D-Ala^10-LHRH.2TFA [Compound 4023]",AO activity (AOA): rats which ovulate / rats treated,[1]; dose 1 μg per rat,0/8@1.00
same,"AO activity (AOA), in words",[1],effective
"Ac-D-Nal^1, 4-Cl-D-Phe^2, D-Pal^3, D-Lys(Glycolyl)^6, Lys(iPr)^8, D-Ala^10-LHRH.TFA [Compound 3437]",AO activity (AOA): rats which ovulate / rats treated,[1]; dose 1 μg per rat,7/8@1 μg
"Ac-D-Nal^1, 4-Cl-D-Phe^2, D-Pal^3, Cit^5, D-Pal^6, Lys(iPr)^8, D-Ala^10-LHRH.TFA [Compound 3433]",AO activity (AOA): rats which ovulate / rats treated,[1]; dose 1 μg per rat,5/8@1 μg
"Ac-D-Nal^1, 4-Cl-D-Phe^2, D-Pal^3, D-Pal(N—O)^6, Lys(iPr)^8, D-Ala^10-LHRH.TFA [Compound 3786]",AO activity (AOA): rats which ovulate / rats treated,[1]; dose 1 μg per rat,4/8@1.0
"Ac-D-(or L)-9-anthryl-Ala^1, 4-Cl-D-Phe^2, D-Pal^3, D-Cit^6-Lys(iPr)^8, D-Ala^10-LHRH.TFA [Compound 3366]",AO activity (AOA): rats which ovulate / rats treated,[1]; dose 5 μg per rat,6/8@5 μg
"Ac-D-Nal^1, 4-Cl-D-Phe^2, D-Pal^3, D-Glu(Dea)^6, Lys(iPr)^8, D-Ala^10-LHRH.TFA [Compound 3543]",AO activity (AOA): rats which ovulate / rats treated,[1]; dose 1 μg per rat,6/8@1 μg
"Ac-D-Nal-4-Cl-D-Phe^2, D-Pal^3, D-Lys(Ac-D-Nal^1 , 4-Cl-D-Phe^2, D-Pal^3, Ser)^6, Lys(iPr)^8, D-Ala^10-LHRH.TFA [Compound 3722]",AO activity (AOA): rats which ovulate / rats treated,[1]; dose 5 μg per rat,8/8@5.0
